Assay [1] deals with T1, His6 tagged human recombinant FABP4 (Homo sapiens, UniProt P15090).
T1 construct: purchased Cayman Chemicals 10009549
The assay can be described thus: FABP4 TR-FRET assay: displacement of fluorescent fatty acid BODIPY FL C12. The conditions noted are these: inhibition of BODIPY FL C12 binding to His6-FABP4; 1.2 μL of 1.085 mM compound in DMSO per well; triplicates, mean percent inhibition. From the text: Activity of compounds with FABP4 was profiled using a Terbium (Tb) based time resolved fluorescence energy transfer (TR-FRET) assay. The assay measures the compound mediated displacement of the fluorescent fatty acid BODIPY FL C12 (Thermo Fisher; catalog number D3822) from His6 tagged human recombinant FABP4 (His6-FABP4; Cayman Chemicals, catalog number 10009549) via recording the energy transfer from TB donor molecule on anti-His6-tag antibody to acceptor BODIPY moiety. Briefly, compounds and BODIPY FL C12 were prepared at a concentration of 1.085 mM and 4.2 μM, respectively, in DMSO. 1.2 μL of each compound or DMSO (vehicle control) and 1.2 μL of BODIPY FL C12 were added into the wells of a 384-well black polypropylene plate. His6-FABP4 and Tb anti-His6 antibody were prepared in the assay buffer (25 mM Tris/HCl, pH 7.4, 0.4 mg/ml γ-globulins, 0.010% NP-40, 1 mM DTT) at a concentration of 83 nM and 49.6 nM, respectively. The protein and antibody solutions were then mixed at a ratio of 34:7 (v/v) and incubated on ice for 30 minutes. The assay was initiated by adding 41 μL of the resulting protein/antibody solution into the wells containing the compounds and BODIPY FL C12. The plate was centrifuged and incubated at room temperature for 10 min. The TR-FRET signals were recorded using an EnVision Multilabel plate reader (PerkinElmer; TB excitation 320 nm, BODIPY FL C12 emission 520 nm; TB emission 615 nm). Relative fluorescence ratio (520 nm*10,000/615 nm) were used to calculate the compound mediated inhibition of BODIPY C12 FL fatty acid binding to FABP4. The compounds were tested in triplicates and the results were represented as mean percent inhibition (compound*100/DMSO)±standard deviation (SD). Glucose consumption and FABP4 inhibition is shown below in Table 3 below. The compounds showing no inhibition of activity in the TR-FRET assay are marked as N.A. N.D. stands for “not determined”.

The subject of assay [2] is differentiated 3T3-L1 mouse adipocyte cells. As to the kind of experiment: Adipocyte glucose consumption in differentiated 3T3-L1 cells (colorimetric glucose assay of the medium). In kind it is cell-based. To be noted: 3T3-L1, 24 h, compound 10 μM, loss of glucose from culture medium, mean fold change (compound/DMSO). As to the method:
Activity of compounds on adipocyte glucose consumption was tested in differentiated 3T3-L1 mouse adipocyte cells. 3T3-L1 preadipocytes (ATCC) were routinely cultured in a growth medium composed of DMEM high-glucose (Sigma), 10% FBS (Gibco), 10 U/ml penicillin and 10 μg/ml streptomycin (P/S; Gibco). To induce adipogenic differentiation, a confluent layer of 3T3-L1 cells were incubated with the growth medium containing 2 μM rosiglitazone, 1 μM dexamethasone, 500 μM IBMX, and 1 μg/ml insulin (Sigma). Forty-eight (48) hours later (on day 2) and on days 4 and 6, medium of the cells was replaced with fresh medium containing 1 μg/ml insulin. On days 8 and 10, the medium was refreshed with regular growth medium and addition of insulin was omitted. On day 11, medium of the cells were 10 replaced with fresh medium containing either the indicated compounds (10 μM) or the vehicle in which the compounds were dissolved (DMSO). The final concentration of DMSO was 0.1% (v/v). Growth medium containing 0.1% DMSO was incubated in culture wells containing no cells and used as control. 24 hours later, medium was harvested and subjected to centrifugation at 10,000 g for 5 min. Glucose concentration in the supernatants was determined using a 15 colorimetric assay (Glucose Assay Kit I, Eton Biosciences). Glucose consumption in compound and vehicle treated cells was measured as loss of glucose from the culture medium and represented as mean fold change (compound/DMSO)±standard deviation (SD).

T1 sequence (P15090 whole entry): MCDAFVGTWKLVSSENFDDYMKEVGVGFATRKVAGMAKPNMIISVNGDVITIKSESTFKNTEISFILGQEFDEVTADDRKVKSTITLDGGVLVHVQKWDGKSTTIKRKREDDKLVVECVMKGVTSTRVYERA

For the compound `CCc1ccc2nc(N(C)CC(=O)O)cc(-c3ccccc3)c2c1` [2-[(6-ethyl-4-phenylquinolin-2-yl)(methyl)amino]acetic acid], the inhibition at 1085 µM (stock) in assay [1] came to 103%. Also, the fold induction at 10 µM in assay [2] amounted to 1.12.

As to `CCCCc1ccc2nc(N(C)C(C)CC(=O)O)cc(-c3ccccc3)c2c1` (stereo not drawn) [3-[(6-butyl-4-phenylquinolin-2-yl)(methyl)amino]butanoic acid], the inhibition at 1085 µM (stock) in assay [1] was 103%. In assay [2], the fold induction at 10 µM was 1.04.

On to `CCCCCc1ccc2nc(N(C)CC(=O)O)cc(-c3cccc(C(N)=O)c3)c2c1` [2-{[4-(3-carbamoylphenyl)-6-pentylquinolin-2-yl](methyl)amino}acetic acid], for which the inhibition at 1085 µM (stock) in assay [1] turned out to be 60.4%. In addition, in assay [2], the fold induction at 10 µM came out at 1.04.

Consider `CCCCCCc1ccc2nc(N(CC(=O)O)CC(C)C)cc(-c3ccc(F)cc3)c2c1` [2-{[4-(4-fluorophenyl)-6-hexylquinolin-2-yl](2-methylpropyl)amino}acetic acid], for which the inhibition at 1085 µM (stock) in assay [1] amounted to 78.7%. This compound also gave a fold induction at 10 µM in assay [2] of 1.18.

Consider `CCCCCCc1ccc2nc(N(C)CC(C)C(=O)O)cc(-c3cccc(C#N)c3)c2c1` (stereo not drawn) [3-{[4-(3-cyanophenyl)-6-hexylquinolin-2-yl](methyl)amino}-2-methylpropanoic acid], for which the inhibition at 1085 µM (stock) in assay [1] amounted to 56.5%. The compound also displayed a fold induction at 10 µM in assay [2] of 1.3.

As for `CCCCCCc1ccc2nc(N(C)CC(=O)O)ccc2c1` [2-[(6-hexylquinolin-2-yl)(methyl)amino]acetic acid], the inhibition at 1085 µM (stock) in assay [1] was 53.3%. The same compound had a fold induction at 10 µM in assay [2] of 1.15.

For the compound `CCCCCCc1ccc2nc(OC(C)C(=O)O)cc(-c3cccc(C#N)c3)c2c1` (stereo not drawn) [2-{[4-(3-cyanophenyl)-6-hexylquinolin-2-yl]oxy}propanoic acid], the inhibition at 1085 µM (stock) in assay [1] came out at 3.3%. Further, the fold induction at 10 µM in assay [2] is 1.19.

With `CCCc1ccc2nc(N(C)CC(=O)O)cc(-c3cccc(C#N)c3)c2c1` [2-([4-(3-cyanophenyl)-6-propylquinolin-2-yl](methyl)amino}acetic acid], the inhibition at 1085 µM (stock) in assay [1] was determined as 27.7%. In assay [2], this compound yielded a fold induction at 10 µM of 1.31.

Regarding `CCCCc1ccc2nc(N(C)CC(C)C(=O)O)cc(-c3cccc(C#N)c3)c2c1` (stereo not drawn) [3-{[6-butyl-4-(3-cyanophenyl)quinolin-2-yl](methyl)amino}-2-methylpropanoic acid], in assay [1], the inhibition at 1085 µM (stock) came out at 38.7%. This compound showed a fold induction at 10 µM in assay [2] of 1.21.

Turning to `Cc1cccc(CCc2ccc3nc(N(C)CC(=O)O)cc(-c4ccccc4)c3c2)c1` [2-[methyl({6-[2-(3-methylphenyl)ethyl]-4-phenylquinolin-2-yl})amino]acetic acid], the inhibition at 1085 µM (stock) in assay [1] worked out at 50.2%. In addition, the fold induction at 10 µM in assay [2] is 1.53.

As to `O=C(O)COc1cc(-c2ccccc2)c2cc(Cl)ccc2n1` [2-[(6-chloro-4-phenylquinolin-2-yl)oxy]acetic acid], the inhibition at 1085 µM (stock) in assay [1] came to 34.4%. This compound also came in with a fold induction at 10 µM in assay [2] of 1.1.

Take `CCCCCCc1ccc2nc(-n3ccc(C(=O)O)c3)cc(-c3ccccc3)c2c1` [1-(6-hexyl-4-phenylquinolin-2-yl)-1H-pyrrole-3-carboxylic acid]: in assay [1], the inhibition at 1085 µM (stock) is < 0%. The compound also came in with a fold induction at 10 µM in assay [2] of 1.09.

Take `CN(CC(=O)O)c1cc(-c2ccccc2)c2cc(CCc3cncnc3)ccc2n1` [2-[methyl({4-phenyl-6-[2-(pyrimidin-5-yl)ethyl]quinolin-2-yl})amino]acetic acid]: the inhibition at 1085 µM (stock) in assay [1] stood at 13.2%. In assay [2], this compound showed a fold induction at 10 µM of 1.22.

For `CN(CC(=O)O)c1cc(-c2ccccc2)c2cc(CCc3cnc4ccccc4n3)ccc2n1` [2-[methyl({4-phenyl-6-[2-(quinoxalin-2-yl)ethyl]quinolin-2-yl})amino]acetic acid], the inhibition at 1085 µM (stock) in assay [1] was determined as 33.6%. Besides, the fold induction at 10 µM in assay [2] is 1.28.

As for `CCCCCCc1ccc2nc(N(C)CC(=O)O)cc(Oc3ccc(F)cc3)c2c1` [2-([4-(4-fluorophenoxy)-6-hexylquinolin-2-yl](methyl)amino}acetic acid], the inhibition at 1085 µM (stock) in assay [1] turned out to be 65.2%. Besides, the fold induction at 10 µM in assay [2] turned out to be 1.27.

Source of the values: patent publication US20230183179A1, “NOVEL CELL METABOLISM MODULATING COMPOUNDS AND USES THEREOF” (CRESCENTA BIOSCIENCES, priority 2020, published 2023).
